# Experimental data from patent publication US8329686B2, “Isatin analogues and uses therefor” (Washington University, priority 2006, dated 2012).
# Where two headings read alike, the source gives them in different places.
# Assays:
# Type in all cases: biochemical
# [1] = target: T1, caspase 8 (Homo sapiens, UniProt Q14790); test: Enzyme inhibition assay, caspase 8 (fluorogenic Ac-IETD-AMC)
# T1 construct: purchased Sigma-Aldrich (St. Louis, Mo.)
# [2] = target: T2, caspase 7 (Homo sapiens, UniProt P55210); test: Enzyme inhibition assay, caspase 7 (fluorogenic Ac-DEVD-AMC)
# T2 construct: purchased Sigma-Aldrich (St. Louis, Mo.)
# T2 sequence (P55210 24-198 limits assumed): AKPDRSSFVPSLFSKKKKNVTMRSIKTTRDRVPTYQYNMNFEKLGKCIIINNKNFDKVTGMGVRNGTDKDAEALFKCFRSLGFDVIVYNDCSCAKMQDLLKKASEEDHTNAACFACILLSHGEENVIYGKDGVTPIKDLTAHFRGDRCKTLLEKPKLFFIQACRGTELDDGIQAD
# T2 sequence (P55210 207-303 limits assumed): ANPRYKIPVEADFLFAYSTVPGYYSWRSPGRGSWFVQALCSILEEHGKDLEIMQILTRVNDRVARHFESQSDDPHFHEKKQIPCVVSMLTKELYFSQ
# [3] = target: T3, caspase-3 (Homo sapiens, UniProt P42574); test: Enzyme inhibition assay, caspase 3 (fluorogenic Ac-DEVD-AMC)
# T3 construct: purchased Sigma-Aldrich (St. Louis, Mo.)
# T3 sequence (P42574 29-175 limits assumed): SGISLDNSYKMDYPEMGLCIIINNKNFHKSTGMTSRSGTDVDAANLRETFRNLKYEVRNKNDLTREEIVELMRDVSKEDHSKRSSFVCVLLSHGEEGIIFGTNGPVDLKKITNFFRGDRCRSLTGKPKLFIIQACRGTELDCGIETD
# T3 sequence (P42574 176-277 limits assumed): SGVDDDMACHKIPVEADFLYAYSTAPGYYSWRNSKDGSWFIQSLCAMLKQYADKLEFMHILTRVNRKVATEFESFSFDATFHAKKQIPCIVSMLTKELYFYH
# [4] = target: T4, caspase 6 (Homo sapiens, UniProt P55212); test: Enzyme inhibition assay, caspase 6 (fluorogenic Ac-VEID-AMC)
# T4 construct: purchased Sigma-Aldrich (St. Louis, Mo.)
# T4 sequence (P55212 24-179 limits assumed): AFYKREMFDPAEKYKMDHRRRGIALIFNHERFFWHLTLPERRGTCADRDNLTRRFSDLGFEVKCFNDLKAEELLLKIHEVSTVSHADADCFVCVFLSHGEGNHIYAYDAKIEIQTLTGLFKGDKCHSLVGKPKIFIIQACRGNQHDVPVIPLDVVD
# T4 sequence (P55212 194-293 limits assumed): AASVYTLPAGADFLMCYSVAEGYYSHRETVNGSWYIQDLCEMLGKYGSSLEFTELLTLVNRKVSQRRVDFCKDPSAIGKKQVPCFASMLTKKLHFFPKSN
# Description: (§1) Enzyme Assays. Inhibition of recombinant human caspase-3 and other caspases by the isatin analogues was assessed using a fluorometric assay by measuring the accumulation of a fluorogenic product, 7-amino-4-methylcoumarin (7-AMC).
# (§2) Enzyme Inhibition Assays. Recombinant human caspases (3, 6, 7, and 8) and their peptide-specific substrates (Ac-DEVDAMC, Ac-VEID-AMC, Ac-DEVD-AMC, and Ac-IETD-AMC, respectively) were purchased from Sigma-Aldrich (St. Louis, Mo.) with the exception of caspase 1 and its substrate (Ac-YVAD-AMC), which were obtained from BIOMOL Research Laboratories (Plymouth Meeting, Pa.). The enzymatic activity of caspases was determined by measuring the accumulation of the fluorogenic product 7-amino-4-methylcoumarin (AMC). All assays were prepared in 96-well format at a volume of 210 μL per well and consisted of 100 mM Na+ HEPES (pH 7.4), 10% sucrose, 100 mM NaCl, 0.1% CHAPS, 5 mM 2-mercaptoethanol, 2 mM EDTA, 10 μM Ac-YVAD-AMC (caspase 1); 20 mMNa^+ HEPES (pH 7.4), 10% sucrose, 100 mMNaCl, 0.1% CHAPS, 2 mM EDTA, 10 μM Ac-DEVD-AMC (caspase 3); 20 mM Na^+ HEPES (pH 7.4), 10% sucrose, 100 mM NaCl, 0.1% CHAPS, 2 mM EDTA, 10 μM Ac-VEID-AMC (caspase 6); 20 mM Na+ HEPES (pH 7.4), 100 mM NaCl, 10% sucrose, 0.1% CHAPS, 5 mM 2-mercaptoethanol, 2 mM EDTA, 10 μM Ac-DEVD-AMC (caspase 7); 20 mM Na+ HEPES (pH 7.4), 10% sucrose, 100 mM NaCl, 0.1% CHAPS, 2 mM EDTA, 10 μM Ac-IETD-AMC (caspase 8).
# (§3) Recombinant caspases were first assayed to determine the optimal concentration for each experiment. Optimal concentrations were based in the linear range of the enzyme activation curves. Peptide inhibitors with known IC50 values were tested together with the compounds as a control for each caspase assay. […] Peptide and nonpeptide inhibitors were dissolved in DMSO, and a 2 serial dilution was performed prior to screening in order to obtain desired concentrations. 10 μL was added to each well containing 100 μL caspase solution and allowed to incubate on ice for 30 min. […] The final concentration of DMSO in all wells was 5% of the total volume. In caspase-1 and caspase-7 assays, 10 mM 2-mercaptoethanol was added to the substrate solution for full activation of the enzymes.
# (§4) Compounds were tested in duplicate, and IC50 curves were calculated for all inhibitors assayed. Final IC50s were the average of three independent experiments.
# [5] = target: T5, caspase 1 (Homo sapiens, UniProt P29466); test: Enzyme inhibition assay, caspase 1 (fluorogenic Ac-YVAD-AMC)
# T5 construct: purchased BIOMOL Research Laboratories (Plymouth Meeting, Pa.)
# T5 sequence (P29466 120-297 limits assumed): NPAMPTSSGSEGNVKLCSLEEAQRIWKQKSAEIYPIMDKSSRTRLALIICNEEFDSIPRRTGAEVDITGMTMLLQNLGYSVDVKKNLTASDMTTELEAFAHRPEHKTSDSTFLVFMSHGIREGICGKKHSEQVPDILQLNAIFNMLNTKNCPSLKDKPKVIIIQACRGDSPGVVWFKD
# T5 sequence (P29466 317-404 limits assumed): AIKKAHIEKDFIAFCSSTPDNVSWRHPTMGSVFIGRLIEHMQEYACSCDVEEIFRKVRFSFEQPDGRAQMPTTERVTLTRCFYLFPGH
# Description: as §1, §2, §3, §4
# [6] = Table 2, read-out: IC50 (nM) Caspase 8
# [7] = Table 7, read-out: IC50 (nM) Casp-8
# [8] = Table 2, read-out: IC50 (nM) Caspase 7
# [9] = Table 7, read-out: IC50 (nM) Casp-7
# [10] = Table 2, read-out: IC50 (nM) Caspase 3
# [11] = Table 7, read-out: IC50 (nM) Casp-3
# [12] = Table 2, read-out: IC50 (nM) Caspase 6
# [13] = Table 7, read-out: IC50 (nM) Casp-6
# [14] = Table 2, read-out: IC50 (nM) Caspase 1
# [15] = Table 7, read-out: IC50 (nM) Casp-1
# [16] = Table 1, read-out: IC50 (nM) Caspase 8
# [17] = Table 1, read-out: IC50 (nM) Caspase 7
# [18] = Table 1, read-out: IC50 (nM) Caspase 3
# [19] = Table 1, read-out: IC50 (nM) Caspase 6
# [20] = Table 1, read-out: IC50 (nM) Caspase 1
# T1 sequence (Q14790 217-374 limits assumed): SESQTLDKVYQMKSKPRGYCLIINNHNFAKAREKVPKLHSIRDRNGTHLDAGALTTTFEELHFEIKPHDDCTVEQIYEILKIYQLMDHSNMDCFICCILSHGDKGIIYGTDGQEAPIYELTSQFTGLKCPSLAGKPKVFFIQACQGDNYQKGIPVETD
# T1 sequence (Q14790 385-479 limits assumed): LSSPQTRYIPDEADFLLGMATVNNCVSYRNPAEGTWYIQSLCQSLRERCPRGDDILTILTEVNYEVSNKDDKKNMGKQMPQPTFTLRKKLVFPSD
Compound,"IC50 [1, 6]","IC50 [1, 7]","IC50 [2, 8]","IC50 [3, 10]","IC50 [4, 12]","IC50 [5, 14]","IC50 [5, 15]","IC50 [1, 16]","IC50 [5, 20]","IC50 ([2]; IC50 (nM) Casp-7, Table 7)",IC50 [4],other results
"CN1C(=O)C(=C(C#N)C#N)c2cc(S(=O)(=O)N3CCCC3COc3ccccc3)ccc21 (centres unmarked) [Compound 27a, 2-[1-Methyl-2-oxo-5-(2-phenoxymethyl-pyrrolidine-1-sulfonyl)-1,2-dihydro-indol-3-yl-idene]-malononitrile]",> 50000 nM,> 50000 nM,785 ± 276 nM,119 ± 4 nM,698 ± 94 nM,2820 nM,2820 ± 248 nM,–,–,–,–,"IC50 [2, 9]: 785 ± 276 nM; IC50 [3, 11]: 119 ± 4 nM; IC50 [4, 13]: 698 ± 94 nM"
O=C1C(=O)N(Cc2ccc(OCCF)cc2)c2ccc(S(=O)(=O)N3CC[C@H]3COc3cccnc3)cc21 [WC-II-101],–,–,–,–,–,–,–,> 50000 nM,> 10000 nM,–,–,"IC50 [2, 17]: 17.6 ± 0.4 nM; IC50 [3, 18]: 3.6 ± 0.5 nM; IC50 [4, 19]: 8700 nM"
O=C1C(=O)N(Cc2ccc(OCCF)cc2)c2ccc(S(=O)(=O)N3CCC[C@H]3COc3cccnc3)cc21 [WC-II-100],–,–,–,–,–,–,–,> 50000 nM,> 20000 nM,–,–,"IC50 [2, 17]: 11.3 ± 0.6 nM; IC50 [3, 18]: 3.1 ± 0.4 nM; IC50 [4, 19]: 6900 nM"
"N#CC(C#N)=C1C(=O)N(Cc2ccc(Br)cc2)c2ccc(S(=O)(=O)N3CCCC3COc3ccccc3)cc21 (centres unmarked) [Compound 27d, 2-[1-(4-Bromo-benzyl)-2-oxo-5-(2-phenoxymethyl-pyrrolidine-1-sulfonyl)-1,2-dihydro-indol-3-yl-idene]-malononitrile]",> 50000 nM,> 50000 nM,92.2 ± 11.8 nM,20.1 ± 1.3 nM,840 ± 125 nM,5700 nM,5700 ± 850 nM,–,–,–,–,"IC50 [2, 9]: 92.2 ± 11.8 nM; IC50 ([2]; read-out: IC50 for caspase-7): 92.2 nM; IC50 [3, 11]: 20.1 ± 1.3 nM; IC50 ([3]; read-out: IC50 for caspase-3): 20.1 nM; IC50 [4, 13]: 840 ± 125 nM"
"N#CC(C#N)=C1C(=O)N(Cc2ccc(Br)cc2)c2ccc(S(=O)(=O)N3CCCC3COc3cccnc3)cc21 (centres unmarked) [Compound 30c, 2-{1-(4-Bromo-benzyl)-2-oxo-5-[2-(pyndine-3-yloxymethyl)-pyrrolidine-1-sulfonyl]-1,2-dihydro-indol-3-yl-idene}-malononitrile]",> 50000 nM,> 50000 nM,–,–,–,–,–,–,–,26.3 ± 0.8 nM,515 ± 77 nM,"IC50 ([1]; read-out: IC50 for caspase-8): > 50000 nM; IC50 ([2]; IC50 (nM) Caspase 7, Table 2): 26.3 ± 0.8 nM; IC50 ([2]; IC50 for caspase-7): 26.3 nM; IC50 ([3]; IC50 (nM) Caspase 3, Table 2): 5.13 ± 0.7 nM; IC50 ([3]; IC50 for caspase-3): 5.1 nM; IC50 ([4]; read-out: IC50 for caspase-6): 515 to 770 nM; IC50 [5]: 3400 nM; IC50 ([5]; IC50 (nM) Casp-1, Table 7): 3400 nM; IC50 ([5]; read-out: IC50 for caspase-1): 2700 to 3200 nM"
"(S)-1-(4-Methoxybenzyl)-5-(2-phenoxymethyl-pyrrolidine-1-sulfonyl)-1H-indole-2,3-dione [Compound 11b]",–,–,–,–,–,–,–,–,–,–,–,"IC50 ([1]; Table 4, read-out: IC50 (nM) caspase-8): > 50000 nM; IC50 ([2]; Table 4, read-out: IC50 (nM) caspase-7): 21.8 ± 3.5 nM; IC50 ([3]; Table 4, read-out: IC50 (nM) caspase-3): 14.5 ± 1.6 nM; IC50 ([4]; Table 4, read-out: IC50 (nM) caspase-6): > 5000 nM; IC50 ([5]; Table 4, read-out: IC50 (nM) caspase-1): > 10000 nM"
N#CC(C#N)=C1C(=O)N(Cc2ccc(OCCF)cc2)c2ccc(S(=O)(=O)N3CCC[C@H]3COc3ccccc3)cc21 [WC-II-92],> 50000 nM,–,96.3 ± 20.7 nM,18.3 ± 0.4 nM,927 ± 35 nM,10000 nM,–,–,–,–,–,–
"N#CC(C#N)=C1C(=O)N(Cc2ccccc2)c2ccc(S(=O)(=O)N3CCCC3COc3ccccc3)cc21 (centres unmarked) [Compound 27b, 2-[1-Benzyl-2-oxo-5-(2-phenoxymethyl-pyrrolidine-1-sulfonyl)-1,2-dihydroindol-3-yl-idene]-malononitrile]",> 50000 nM,> 50000 nM,–,–,–,–,–,–,–,51.7 ± 6.2 nM,918 ± 151 nM,"IC50 ([2]; IC50 (nM) Caspase 7, Table 2): 51.7 ± 6.2 nM; IC50 ([2]; IC50 for caspase-7): 51.7 nM; IC50 ([3]; IC50 (nM) Casp-3, Table 7): 27.8 ± 2.5 nM; IC50 ([3]; IC50 (nM) Caspase 3, Table 2): 27.8 ± 2.5 nM; IC50 ([3]; IC50 for caspase-3): 27.8 nM; IC50 [5]: 6220 nM"
"O=C1C(=O)N(Cc2ccc(Br)cc2)c2ccc(S(=O)(=O)N3CCCC3COc3ccccc3)cc21 (centres unmarked) [Compound 25d, 1-(4-Bromo-benzyl)-5-(2-Phenoxymethyl-pyrrolidine-1-sulfonyl)-1H-indole-2,3-dione]",–,> 50000 nM,–,–,–,–,> 15000 nM,> 50000 nM,> 15000 nM,34.8 ± 1.4 nM,8900 nM,"IC50 ([2]; IC50 (nM) Caspase 7, Table 1): 34.8 ± 1.4 nM; IC50 ([3]; IC50 (nM) Casp-3, Table 7): 9.85 ± 0.9 nM; IC50 ([3]; IC50 (nM) Caspase 3, Table 1): 9.9 ± 0.9 nM"
